One assay has as its system HT1080 tumour cells. Put plainly: Invasion of HT1080 tumour cells through Matrigel (cell invasion test). Format: cell-based, human. The protocol:
The effect of the compounds of formula (I), inhibitors of heparanases, was tested in vitro on the invasion of HT1080 tumour cells.
The cells derived from human fibrosarcomas, HT1080 (ATCC CCL-121) are cultured in a DMEM medium (Ref.: GIBCO 11960-044) containing 5% Foetal Calf Serum, glutamine (2 mM) (Ref.: GIBCO 25030-024), sodium pyruvate (1 mM) (Ref.: GIBCO 11360-039) and nonessential amino acids (1×) (Ref.: GIBCO 11140-035), on collagen coated flasks (Becton Dickinson 75 cm^2; Ref. 354523), to 50 to 80% confluence.
The measurements of invasion of the HT1080 cells are carried out on a Becton Dickinson falcon HTS Fluoroblock Multiwell Insert System kit in 24-well plates (Ref.: 351158). These measurement chambers give the cells the conditions which make it possible to evaluate their invasive properties in vitro.
The kit is composed of a plate combined with culture inserts containing a PET membrane pierced with 8 micron pores on which a uniform Matrigel Matrix (Becton Dickinson; Ref. 354230) layer is deposited.
Matrigel is a soluble basal membrane extracted from the EHS (Engelbreth-Holm-Swarm) tumour which, by virtue of its composition, forms, upon solidifying, a structure equivalent to a basal membrane.
The Matrigel layer blocks the pores of the membrane, thus blocking the migration of the noninvasive cells across the membrane. By contrast, the invasive (tumour or nontumour) cells will be capable of becoming detached and of invading the Matrigel layer before migrating across the membrane.
The quantification of the cell migration is carried out by labelling with calcein AM (Molecular Probes C-3100). The fluorescent signal emitted is measured with the aid of a Perkin Elmer Wallac VICTOR 3 reader and may be directly correlated with the number of cells which have invaded the Matrigel gel. By comparing them with controls made in the same experiment as the products studied (response in the presence of 0% and 5% foetal calf serum), it is possible to determine a percentage inhibition of cell invasion in the presence of the products.

The target in a further assay is T1, heparanase (Homo sapiens, UniProt Q9Y251).
T1 sequence (Q9Y251 36-543): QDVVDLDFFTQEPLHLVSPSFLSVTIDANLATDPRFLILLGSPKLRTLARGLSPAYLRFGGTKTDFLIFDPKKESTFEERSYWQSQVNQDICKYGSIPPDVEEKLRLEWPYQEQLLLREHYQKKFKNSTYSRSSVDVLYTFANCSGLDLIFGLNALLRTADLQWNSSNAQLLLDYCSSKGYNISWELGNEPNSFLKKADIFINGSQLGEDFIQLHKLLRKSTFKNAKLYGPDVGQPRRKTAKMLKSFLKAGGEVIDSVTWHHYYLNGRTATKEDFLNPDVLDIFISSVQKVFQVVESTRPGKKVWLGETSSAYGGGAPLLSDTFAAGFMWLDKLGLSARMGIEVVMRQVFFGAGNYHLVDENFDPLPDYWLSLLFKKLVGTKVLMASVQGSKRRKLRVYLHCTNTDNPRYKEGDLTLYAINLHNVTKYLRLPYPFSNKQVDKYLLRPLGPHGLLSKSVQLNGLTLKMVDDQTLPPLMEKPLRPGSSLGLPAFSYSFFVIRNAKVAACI
Put plainly: Heparanase inhibition in an enzymatic system (degradation of fondaparinux, read out by anti-factor Xa activity). The class given is biochemical. The settings on record: mean±SD, done on two assays. On the procedure: The concentration of fondaparinux is determined by means of its anti-factor Xa activity.
The heparanase is produced by Sanofi-Synthelabo (Labège, France).
The reagents for assaying factor Xa are marketed by Chromogénix (Montpellier, France).
Increasing concentrations of a compound according to the invention, an inhibitor of heparanases (varying dilutions: from 1 nM to 10 μM) are mixed at a fixed heparanase concentration (for each batch, preliminary experiments make it possible to determine the enzymatic activity which is sufficient for the degradation of 0.45 μg/ml of added fondaparinux). After 5 minutes at 37° C., the mixture is exposed to fondaparinux and left for 1 hour at 37° C. The reaction is stopped by heating at 95° C. for 5 minutes. The residual fondaparinux concentration is finally measured by adding factor Xa and its specific chromogenic substrate (Ref. S2222).
The various mixtures are produced according to the following procedure:
50 μl of sodium acetate buffer (0.2 M, pH 4.2) are mixed with 50 μl of fondaparinux (0.45 μg/ml) and 59 μl of a heparanase solution. The mixture is incubated for 1 hour at 37° C. and then for 5 minutes at 95° C. […]
The anti-factor Xa activity of fondaparinux is measured in the following manner: […]
The optical density is read at 405 nm.
A percentage inhibition is determined relative to control without inhibitor. […]

Experimental findings from patent publication US20120065153A1, “AZASUGAR DERIVATIVES, HEPARANASE INHIBITORS, METHOD FOR PREPARING SAME, COMPOSITIONS CONTAINING SAME, USE THEREOF” (SANOFI-AVENTIS, priority 2004, published 2012) are described below.

With `CC(=O)N[C@H]1[C@@H](O[C@H]2[C@H](O)CNC[C@@H]2C(=O)O)O[C@H](COS(=O)(=O)O)[C@@H](O[C@@H]2O[C@@H](C(=O)O)[C@@H](O[C@H]3O[C@H](COS(=O)(=O)O)[C@@H](O[C@@H]4O[C@@H](C(=O)O)[C@@H](OS(=O)(=O)O)[C@H](O)[C@H]4OS(=O)(=O)O)[C@H](O)[C@H]3NC(C)=O)[C@H](O)[C@H]2OS(=O)(=O)O)[C@@H]1O.[Na+].[Na+].[Na+].[Na+].[Na+].[Na+].[Na+].[Na+]` [compound No. 20, (2,4-di-O-sodium sulphonato-α-L-idopyranosyluronate of sodium)-(1-4)-(2-acetamido-2-deoxy-6-O-sodiumsulphonato-α-D-glucopyranosyl)-(1-4)-(2-O-sodiumsulphonato-α-L-idopyranosyluronate of sodium)-(1-4)-(2-acetamido-2-deoxy-6-O-sodiumsulphonato-α-D-glucopyranosyl)-(1-4)-(5-(hydroxy)-4-oxypiperidine-3-carboxylate of sodium (3S,4R,5R))], the “inhibition of cell invasion” value in the assay on HT1080 tumour cells (0.3 μM) is given as 26±3%; in the assay with HT1080 tumour cells (1 μM), 53±11%; in the assay with HT1080 tumour cells (10 μM, four independent determinations, mean±standard deviation), 40.3±8.3%. Further, the “effect on cell invasion as a function of dose” value with HT1080 tumour cells (HT1080 cells) is reported as “dose-dependent effect”.
Turning to `O=C(O)[C@H]1CNC[C@@H](O)[C@@H]1O[C@H]1O[C@H](COS(=O)(=O)O)[C@@H](O[C@@H]2O[C@@H](C(=O)O)[C@@H](O[C@H]3O[C@H](COS(=O)(=O)O)[C@@H](O[C@@H]4O[C@@H](C(=O)O)[C@@H](OS(=O)(=O)O)[C@H](O)[C@H]4OS(=O)(=O)O)[C@H](O)[C@H]3NS(=O)(=O)O)[C@H](O)[C@H]2OS(=O)(=O)O)[C@H](O)[C@H]1NS(=O)(=O)O` [compound No. 27, (2,4-di-O-sodium sulphonato-α-L-idopyranosyluronate of sodium)-(1-4)-(2-N-sodiumsulphonato-2-deoxy-6-O-sodiumsulphonato-α-D-glucopyranosyl)-(1-4)-(2-O-sodiumsulphonato-α-L-idopyranosyluronate of sodium)-(1-4)-(2-N-sodiumsulphonato-2-deoxy-6-O-sodiumsulphonato-α-D-glucopyranosyl)-(1-4)-(5-(hydroxy)-4-oxypiperidine-3-carboxylate of sodium (3S,4R,5R))], inhibition on heparanase was half-maximal at 11 ± 4 nM (IC50).
